According to US20240317746A1, “CRYSTALLINE FORMS OF AN AZETIDINE PARP1 INHIBITOR” (XinThera, Inc., priority 2023, published 2024):
In brackets after ≈: the same amount, converted by molar mass. Several values for one entry are separate records, joined by “and”; a condition that tells them apart may be missing. Equal entries are not always repeated. Entries after “also recorded” stand apart in the source; their conditions may differ. Structures can show the parent of a compound that is named as a salt.

Columns and labels:
Format in all cases: physicochemical
[1] = Solubility in bio-relevant media (SGF, FaSSIF, FeSSIF) and water; settings: for XRPD 0.5 h / XRPD 2 h / XRPD 24 h: filter cake; for Solubility 0.5 h / Solubility 2 h / Solubility 24 h: average n=2
Experimental: At 0.5, 2 and 24 hours, about 0.6 mL of each suspension was filtered, the filtrate was analyzed by HPLC and pH meter, and the filter cake was analyzed by XRPD. The samples were prepared in duplicate (n=2) per condition. Average value (n=2) was presented.
HPLC analysis was performed with an Agilent HPLC 1260 series instrument.

[2] = Solid-state stability at 60° C. (capped) and 40° C./75% RH (open)
Experimental: (capped) and 40° C./75% RH (open) for 7 days. Duplicate samples were prepared at each condition. The stability sample was dissolved in diluent to prepare solution at ˜1 mg/mL for HPLC purity analysis. Solid samples were analyzed by XRPD to check the crystal form. […] (capped) and 40° C./75% RH (open) for at least 7 days.

[3] = DVS test (dynamic vapor sorption, hygroscopicity); settings: for hygroscopicity (in words): DVS
Experimental: All the three target forms remained no change after DVS test.
Dynamic Vapor Sorption (DVS) was used to study hygroscopicity on Model Q5000 SA (TA Instruments, New Castle, DE). A sample (1-10 mg) was placed in an aluminum pan and loaded on the sample side of the twin pan balance. The water sorption and desorption were studied as a function of relative humidity (RH) at 25° C. in 10% RH increments from 0% RH to 90% RH and then back to 0%. […] Data analysis was performed using Universal Analysis 2000 Version 4.7A (TA Instruments, New Castle, DE).

[4] = pH solubility profile of Form I in pH buffers; settings: for XRPD 4 h / XRPD 24 h: wet cake
Experimental: Different pH buffers (pH 1.0, 3.0, 5.0, 6.8 and 9.0) were prepared by method in Table 18. Appropriate amount of Form I was added into 1.4 mL of different buffers (pH=1.0, 3.0, 5.0, 6.8 and 9.0) to make suspensions. The suspensions were kept shaking with a speed of 1000 rpm at 25° C. for 4 and 24 hours. At each point, the suspensions were centrifuged, and the supernatant was inspected by UPLC/pH, and the wet cakes were analyzed by XRPD. Duplicate samples were prepared.

[5] = Mechanical stability of Form I (manual grinding); settings: ground by pestle and mortar for about 1 minute and 5 minutes
Experimental: Appropriate amount of Form I was manually ground by pestle and mortar for about 1 minute and 5 minutes, respectively. The ground samples were analyzed by XRPD.

[6] = Stability relationship study (slurry turnover of Form II); settings: anhydrates Form I vs Form II
Experimental: Form II was prepared via heating starting material to 220° C. in DSC pans. Then, about 15 mg of Form II was stirred in 0.5 mL of selected solvent at desired temperatures for 2 and 5 days. Solid samples were collected by filtration and characterized by XRPD.

[7] = Preliminary solubility test: estimated solubility at RT by visual observation; settings: organic solvent or mixture, thermodynamic from solid, read-out: Solubility
Experimental: The solubility of Compound 1 (starting material) was estimated at RT in 18 single solvents and 6 solvent mixtures by visual observation. Approximately 5 mg solids were weighed into 8 mL glass vial, and then solvent was added stepwise until solids were dissolved completely or a total of solvent volume reached 5 mL. […] The solubility was estimated and for reference only.

[8] = Exposure of solid to air at about 38% RH and 22° C.; settings: exposed to air at about 38% RH and 22° C.
Experimental: 6 g of Compound 1 Form I, about 99 wt % purity, was dissolved in a mixture of about 96 g of DCM and about 20 g MeOH at about 32° C. The solution was polish filtered and then the vessel was rinsed forward with a mixture of about 20 g of DCM and about 3.6 g of MeOH. The filtrate was charged with a solution containing about 2.28 g of L-tartaric acid dissolved in about 6 mL of water at about 22° C. A slurry of solids formed after stirring for about 1 day. The slurry was distilled under vacuum to about 3 V (about 20 mL) at about 40° C., and then cooled to about 22° C. It was charged with about 87 g of acetone, held at about 22° C. for about 1 h, and then cooled to about 0° C. After holding for about 4 h, the slurry was filtered, rinsed with about 24 g of pre-cooled acetone twice. The wet cake was dried at 50° C. with full house vacuum under nitrogen sweep for about 4 days to afford about 7.36 g of L-tartrate Form IV (with a small amount of L-tartrate Form I). […] When exposed to air at about 38% RH and 22° C., a small sample of Compound 1 L-tartrate Form IV completely converted to Compound 1 L-tartrate Form III in less than 20 min.

[9] = FaSSIF, initial pH 6.45, 37° C.
[10] = FaSSIF, initial pH 6.45, filtrate
[11] = FeSSIF, initial pH 4.99, 37° C.
[12] = FeSSIF, initial pH 4.99, filtrate
[13] = Water, initial pH 5.41, filtrate
[14] = aqueous buffer, thermodynamic from solid, pH 3.0 buffer (25 mM citrate), initial pH 3.01, solid loading 5 mg/mL, 25° C.
[15] = aqueous buffer, thermodynamic from solid, pH 5.0 buffer (25 mM citrate), initial pH 4.95, solid loading 5 mg/mL, 25° C.
[16] = aqueous buffer, thermodynamic from solid, pH 6.8 buffer (25 mM phosphate), initial pH 6.78, solid loading 5 mg/mL, 25° C.
[17] = aqueous buffer, thermodynamic from solid, pH 9.0 buffer (25 mM DEA), initial pH 9.01, solid loading 5 mg/mL, 25° C.
[18] = pH 1.0 buffer, initial pH 1.01, solid loading 60 mg/mL
[19] = pH 3.0 buffer, initial pH 3.01, solid loading 5 mg/mL
[20] = pH 5.0 buffer, initial pH 4.95, solid loading 5 mg/mL
[21] = pH 6.8 buffer, initial pH 6.78, solid loading 5 mg/mL
[22] = pH 9.0 buffer, initial pH 9.01, solid loading 5 mg/mL
[23] = simulated gastric fluid, thermodynamic from solid, pH 1.0 buffer (0.1N HCl), initial pH 1.01, solid loading 60 mg/mL, 25° C.

SMILES: C[C@@H]1[C@@H](Oc2ccc(C(=O)NC3CC3)nc2)CN1Cc1cnc2cc(Cl)c(=O)[nH]c2c1 [Freebase Form I, 5-(((2R,3S)-1-((7-chloro-6-oxo-5,6-dihydro-1,5-naphthyridin-3-yl)methyl)-2-methylazetidin-3-yl)oxy)-N-cyclopropylpicolinamide]
- XRPD 0.5 h ([1]; FaSSIF): Unchanged
- XRPD 2 h ([1]; FaSSIF): Unchanged
- XRPD 24 h ([1]; FaSSIF): Unchanged
- Solubility 0.5 h [1, 9]: 13 µg/mL (≈ 29.6 µM)
- Solubility 2 h [1, 9]: 15 µg/mL (≈ 34.1 µM)
- Solubility 24 h [1, 9]: 15 µg/mL (≈ 34.1 µM)
- pH 0.5 h [1, 10]: 6.47
- pH 2 h [1, 10]: 6.39
- pH 24 h [1, 10]: 6.44
- XRPD 0.5 h ([1]; FeSSIF): Unchanged
- XRPD 2 h ([1]; FeSSIF): Unchanged
- XRPD 24 h ([1]; FeSSIF): Unchanged
- Solubility 0.5 h [1, 11]: 82 µg/mL (≈ 186 µM)
- Solubility 2 h [1, 11]: 83 µg/mL (≈ 189 µM)
- Solubility 24 h [1, 11]: 80 µg/mL (≈ 182 µM)
- pH 0.5 h [1, 12]: 5.01
- pH 2 h [1, 12]: 4.98
- pH 24 h [1, 12]: 4.82
- XRPD 0.5 h, 2 h, 24 h ([1]; SGF): Clear
- solubility ([1]; SGF, 37 °C, pH 1.23, simulated gastric fluid, thermodynamic from solid, SGF, 37° C., read-out: solubility in SGF): > 5000 µg/mL
- Solubility 0.5 h, 2 h, 24 h ([1]; SGF, initial pH 1.23, 37° C.): >5000 µg/mL
- pH 0.5 h ([1]; SGF, initial pH 1.23, filtrate): 1.33
- pH 2 h ([1]; SGF, initial pH 1.23, filtrate): 1.20
- pH 24 h ([1]; SGF, initial pH 1.23, filtrate): 1.28
- XRPD 0.5 h ([1]; Water): Unchanged
- XRPD 2 h ([1]; Water): Unchanged
- XRPD 24 h ([1]; Water): Unchanged
- Solubility 0.5 h ([1]; Water, initial pH 5.41, 37° C.): 11 µg/mL (≈ 25 µM)
- Solubility 2 h ([1]; Water, initial pH 5.41, 37° C.): 11 µg/mL (≈ 25 µM)
- Solubility 24 h ([1]; Water, initial pH 5.41, 37° C.): 10 µg/mL (≈ 22.7 µM)
- pH 0.5 h [1, 13]: 5.93
- pH 2 h [1, 13]: 6.54
- pH 24 h [1, 13]: 7.54
- crystal form after solubility test ([1]; XRPD of filter cake): remained unchanged
- solubility in the other media (in words) ([1]; media other than SGF (FaSSIF, FeSSIF, water), 37° C.): low solubility
- XRPD - 7 d ([2]; 40° C./75% RH (open), 7 days): Unchanged
- physical and chemical stability ([2]; 60° C. (capped) and 40° C./75% RH (open), 7 days): physically and chemically stable
- XRPD - 7 d ([2]; 60° C. (capped), 7 days): Unchanged
- Initial Purity ([2]; before storage, HPLC): 99.16 area %
- hygroscopicity (in words) [3]: slightly hygroscopic
- hygroscopicity (in words) ([3]; listed as Form I): slightly hygroscopic
- crystal form after DVS test ([3]; XRPD after DVS): remained unchanged
- water uptake ([3]; at 80% RH): 0.5%
- water uptake ([3]; at 80% RH, listed as Form I): 0.5% and < 1%
- water uptake ([3]; at 90% RH): 0.6%
- water uptake ([3]; at 90% RH, listed as Form I): 0.6%
- solubility at 4 h [4, 14]: 2460 µg/mL (≈ 5600 µM)
- solubility at 24 h [4, 14]: 784 µg/mL (≈ 1780 µM)
- solubility at 4 h [4, 15]: 83 µg/mL (≈ 189 µM)
- solubility at 24 h [4, 15]: 84 µg/mL (≈ 191 µM)
- solubility at 4 h [4, 16]: 8 µg/mL (≈ 18.2 µM)
- solubility at 24 h [4, 16]: 8 µg/mL (≈ 18.2 µM)
- solubility at 4 h [4, 17]: 14 µg/mL (≈ 31.8 µM)
- solubility at 24 h [4, 17]: 14 µg/mL (≈ 31.8 µM)
- solubility ([4]; pH 1, simulated gastric fluid, thermodynamic from solid, 0.1 N HCl, 25° C., read-out: solubility (highest)): > 40000 µg/mL
- pH 4 h [4, 18]: 2.48
- pH 24 h [4, 18]: 2.38
- XRPD 4 h ([4]; pH 1.0 buffer): Form I
- XRPD 24 h ([4]; pH 1.0 buffer): Form I
- form change of the solid ([4]; pH 3 buffer at 24 h): converted into Citrate Form I
- pH 4 h [4, 19]: 3.30
- pH 24 h [4, 19]: 3.45
- XRPD 4 h ([4]; pH 3.0 buffer): Form I
- XRPD 24 h ([4]; pH 3.0 buffer): Citrate Form I
- pH 4 h [4, 20]: 4.88
- pH 24 h [4, 20]: 4.90
- XRPD 4 h ([4]; pH 5.0 buffer): Form I
- XRPD 24 h ([4]; pH 5.0 buffer): Form I
- solubility (in words) ([4]; pH 6.8 and 9 buffers, 25° C.): low
- pH 4 h [4, 21]: 6.75
- pH 24 h [4, 21]: 6.79
- XRPD 4 h ([4]; pH 6.8 buffer): Form I
- XRPD 24 h ([4]; pH 6.8 buffer): Form I
- pH 4 h [4, 22]: 9.16
- pH 24 h [4, 22]: 9.15
- XRPD 4 h ([4]; pH 9.0 buffer): Form I
- XRPD 24 h ([4]; pH 9.0 buffer): Form I
- solubility at 4 h [4, 23]: > 44400 µg/mL
- solubility at 24 h [4, 23]: > 44500 µg/mL
- form change of the solid ([4]; the other conditions (other buffers and time points)): remained unchanged
- crystal form after grinding (XRPD) [5]: remained unchanged with little crystallinity decrease
- relative stability of the crystal form [6]: more stable anhydrate at RT to 80 °C; also recorded: Stable below 80 °C
- solubility ([7]; DCM/MeOH (4/1, v/v), DCM/MeOH (4/1)): > 50000 µg/mL
- solubility ([7]; most solvent systems): < 5000 µg/mL

SMILES: C[C@@H]1[C@@H](Oc2ccc(C(=O)NC3CC3)nc2)CN1Cc1cnc2cc(Cl)c(=O)[nH]c2c1 [L-Tartrate Salt Form IV, 5-(((2R,3S)-1-((7-chloro-6-oxo-5,6-dihydro-1,5-naphthyridin-3-yl)methyl)-2-methylazetidin-3-yl)oxy)-N-cyclopropylpicolinamide]
- time to complete conversion to L-tartrate Form III [8]: less than 20 min
